Laboratory results published in ChEMBL document CHEMBL4270560, “Novel curcumin analogue hybrids: Synthesis and anticancer activity” (Eur J Med Chem, 2018).
Active and inactive are the calls of the source. No cut-off for these calls is given here.

Experiments:
SGC-7901 [1] = experiment: Cell cycle arrest in human SGC7901 cells assessed as accumulation at G2 phase at 1200 nM after 48 hrs by propidium iodide staining based flow cytometric analysis (reference value: 18.77%); type: functional
SGC-7901 [2] = experiment: Cell cycle arrest in human SGC7901 cells assessed as accumulation at G2 phase at 1000 nM after 48 hrs by propidium iodide staining based flow cytometric analysis (reference value: 18.77%); type: functional
[3] = target: T1, Thioredoxin reductase (Homo sapiens) (UniProt Q16881+Q9NNW7+Q86VQ6); experiment: Inhibition of TrxR in human SGC7901 cells assessed as induction of intracellular ROS generation at 800 to 1000 nM after 5 hrs in presence of NAC by DCFH-DA staining based flow cytometric analysis; type: cell-based
T1 sequence (Q86VQ6 whole entry, looked up, one chain of several): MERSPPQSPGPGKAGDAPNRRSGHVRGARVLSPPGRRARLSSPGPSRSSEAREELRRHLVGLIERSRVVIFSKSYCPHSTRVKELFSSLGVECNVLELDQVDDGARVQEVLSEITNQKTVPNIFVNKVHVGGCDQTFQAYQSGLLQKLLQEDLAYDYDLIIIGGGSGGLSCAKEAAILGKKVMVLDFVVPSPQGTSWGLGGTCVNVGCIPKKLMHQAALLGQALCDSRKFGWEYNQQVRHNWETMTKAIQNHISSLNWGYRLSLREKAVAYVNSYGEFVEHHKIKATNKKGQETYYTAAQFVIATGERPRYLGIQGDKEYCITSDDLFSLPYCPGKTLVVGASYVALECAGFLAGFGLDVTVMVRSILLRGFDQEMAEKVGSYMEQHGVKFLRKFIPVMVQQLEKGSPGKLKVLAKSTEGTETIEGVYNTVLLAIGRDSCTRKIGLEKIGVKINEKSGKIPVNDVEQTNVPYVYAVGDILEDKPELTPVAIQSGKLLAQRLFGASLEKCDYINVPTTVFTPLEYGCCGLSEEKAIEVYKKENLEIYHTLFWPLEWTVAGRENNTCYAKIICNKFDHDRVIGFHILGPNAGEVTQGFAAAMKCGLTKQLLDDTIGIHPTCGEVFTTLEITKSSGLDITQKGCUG
T1 sequence (Q9NNW7 whole entry, looked up, one chain of several): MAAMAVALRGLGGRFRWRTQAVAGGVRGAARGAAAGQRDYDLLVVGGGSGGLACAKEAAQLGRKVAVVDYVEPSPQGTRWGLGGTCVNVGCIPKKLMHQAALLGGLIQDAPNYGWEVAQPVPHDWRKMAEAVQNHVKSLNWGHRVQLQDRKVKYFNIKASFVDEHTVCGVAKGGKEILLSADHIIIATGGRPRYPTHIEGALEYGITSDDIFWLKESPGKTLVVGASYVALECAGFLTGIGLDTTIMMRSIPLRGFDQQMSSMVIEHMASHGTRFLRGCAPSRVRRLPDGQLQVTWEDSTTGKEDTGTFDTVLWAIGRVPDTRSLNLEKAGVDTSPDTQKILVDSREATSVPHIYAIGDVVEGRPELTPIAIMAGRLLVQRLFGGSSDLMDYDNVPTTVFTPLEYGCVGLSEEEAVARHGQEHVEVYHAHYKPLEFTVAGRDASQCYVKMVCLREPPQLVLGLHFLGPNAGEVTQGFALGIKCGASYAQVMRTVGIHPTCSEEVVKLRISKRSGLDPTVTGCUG

SGC-7901 [4] = experiment: Induction of apoptosis in human SGC7901 cells assessed as early apoptotic cells at 1000 nM after 48 hrs in presence of NAC by Annexin V-FITC/propidium iodide staining based flow cytometric analysis (reference value: 0.851%); type: functional
SGC-7901 [5] = experiment: Cell cycle arrest in human SGC7901 cells assessed as accumulation at G1 phase after 48 hrs by propidium iodide staining based flow cytometric analysis; type: functional
SMMC-7721 = experiment: Antiproliferative activity against human SMMC7721 cells after 48 hrs by MTT assay; type: functional, cell-based; conditions: SMMC-7721, 48 h
SGC-7901 [6] = experiment: Induction of apoptosis in human SGC7901 cells assessed as late apoptotic cells at 1000 nM after 48 hrs in presence of NAC by Annexin V-FITC/propidium iodide staining based flow cytometric analysis (reference value: 2.85%); type: functional
SGC-7901 [7] = experiment: Induction of mitochondrial membrane depolarization in human SGC7901 cells assessed as cells with intact mitochondrial membrane potential at 800 nM after 48 hrs by JC-1 staining based flow cytometric analysis (reference value: 87.3%); type: functional
SGC-7901 [8] = experiment: Cell cycle arrest in human SGC7901 cells assessed as accumulation at G1 phase at 800 nM after 48 hrs by propidium iodide staining based flow cytometric analysis (reference value: 47.93%); type: functional
[9] = target: T1, Thioredoxin reductase (Homo sapiens); experiment: Inhibition of TrxR in human SGC7901 cells assessed as p38 phosphorylation at 600 to 1200 nM after 48 hrs by Western blot analysis; type: cell-based
SGC-7901 [10] = experiment: Induction of apoptosis in human SGC7901 cells assessed as late apoptotic cells at 1200 nM after 48 hrs by Annexin V-FITC/propidium iodide staining based flow cytometric analysis (reference value: 1.73 to 2.85%); type: functional
SGC-7901 [11] = experiment: Cell cycle arrest in human SGC7901 cells assessed as accumulation at S phase at 1000 nM after 48 hrs by propidium iodide staining based flow cytometric analysis (reference value: 33.30%); type: functional
[12] = target: T1, Thioredoxin reductase (Homo sapiens); experiment: Inhibition of TrxR in human SGC7901 cells assessed as JNK phosphorylation at 600 to 1200 nM after 48 hrs by Western blot analysis; type: cell-based
SGC-7901 [13] = experiment: Induction of apoptosis in human SGC7901 cells assessed as late apoptotic cells at 600 nM after 48 hrs by Annexin V-FITC/propidium iodide staining based flow cytometric analysis (reference value: 1.73%); type: functional
SGC-7901 [14] = experiment: Induction of apoptosis in human SGC7901 cells assessed as early apoptotic cells at 800 nM after 48 hrs by Annexin V-FITC/propidium iodide staining based flow cytometric analysis (reference value: 2.30%); type: functional
SGC-7901 [15] = experiment: Induction of mitochondrial membrane depolarization in human SGC7901 cells assessed as cells with intact mitochondrial membrane potential at 1000 nM after 48 hrs by JC-1 staining based flow cytometric analysis (reference value: 87.3%); type: functional
SGC-7901 [16] = experiment: Cell cycle arrest in human SGC7901 cells assessed as accumulation at S phase at 800 nM after 48 hrs by propidium iodide staining based flow cytometric analysis (reference value: 33.30%); type: functional
SGC-7901 [17] = experiment: Induction of mitochondrial membrane depolarization in human SGC7901 cells assessed as cells with intact mitochondrial membrane potential at 1000 nM after 48 hrs in presence of NAC by JC-1 staining based flow cytometric analysis (reference value: 98%); type: functional
SGC-7901 [18] = experiment: Antiproliferative activity against human SGC7901 cells after 48 hrs by MTT assay; type: functional, cell-based; conditions: SGC-7901, 48 h
SGC-7901 [19] = experiment: Induction of apoptosis in human SGC7901 cells assessed as increase in Bax to Bcl-2 ratio level at 600 to 1200 nM after 48 hrs by Western blot analysis; type: functional, cell-based
SGC-7901 [20] = experiment: Cell cycle arrest in human SGC7901 cells assessed as accumulation at G1 phase at 600 nM after 48 hrs by propidium iodide staining based flow cytometric analysis (reference value: 47.93%); type: functional
[21] = target: T2, Thioredoxin reductase 1, cytoplasmic (Homo sapiens, UniProt Q16881); experiment: (§1) Inhibition of TrxR in human SGC7901 cells; type: cell-based
T2 sequence (Q16881 whole entry): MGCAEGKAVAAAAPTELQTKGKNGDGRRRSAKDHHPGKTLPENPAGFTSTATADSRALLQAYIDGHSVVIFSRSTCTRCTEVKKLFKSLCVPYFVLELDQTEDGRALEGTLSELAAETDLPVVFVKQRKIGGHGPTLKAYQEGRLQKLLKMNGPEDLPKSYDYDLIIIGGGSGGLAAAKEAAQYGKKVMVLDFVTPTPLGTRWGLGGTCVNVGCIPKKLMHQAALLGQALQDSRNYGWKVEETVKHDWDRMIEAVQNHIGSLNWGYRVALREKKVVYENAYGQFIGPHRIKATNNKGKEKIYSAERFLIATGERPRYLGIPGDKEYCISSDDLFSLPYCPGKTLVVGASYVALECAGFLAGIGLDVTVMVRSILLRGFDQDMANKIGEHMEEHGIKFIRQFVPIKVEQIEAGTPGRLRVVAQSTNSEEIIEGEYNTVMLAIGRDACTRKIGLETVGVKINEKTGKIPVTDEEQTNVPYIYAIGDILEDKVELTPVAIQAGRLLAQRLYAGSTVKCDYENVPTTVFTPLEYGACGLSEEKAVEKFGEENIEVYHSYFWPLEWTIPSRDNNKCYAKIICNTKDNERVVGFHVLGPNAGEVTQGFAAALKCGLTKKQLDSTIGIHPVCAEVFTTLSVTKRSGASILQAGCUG

[22] = target: T3, Thioredoxin reductase 1, cytoplasmic (Homo sapiens) (UniProt Q16881); experiment: as §1; type: cell-based
T3 sequence (whole entry): T2 sequence (Q16881 whole entry)

SGC-7901 [23] = experiment: Cell cycle arrest in human SGC7901 cells assessed as accumulation at G1 phase at 1200 nM after 48 hrs by propidium iodide staining based flow cytometric analysis (reference value: 47.93%); type: functional
SGC-7901 [24] = experiment: Induction of apoptosis in human SGC7901 cells assessed as necrotic cells at 1000 nM after 48 hrs by Annexin V-FITC/propidium iodide staining based flow cytometric analysis (reference value: 0.052 to 0.304%); type: functional
SGC-7901 [25] = experiment: Induction of apoptosis in human SGC7901 cells assessed as viable cells at 1200 nM after 48 hrs in presence of NAC by Annexin V-FITC/propidium iodide staining based flow cytometric analysis (reference value: 96%); type: functional; conditions: SGC-7901, 48 h, read-out: Activity
SGC-7901 [26] = experiment: Induction of apoptosis in human SGC7901 cells assessed as increase in Bax to Bcl-2 ratio level at 1200 nM after 48 hrs in presence of NAC by Western blot analysis; type: functional, cell-based

COc1cc(OC)c2c(=O)c(OCCCOc3ccccc3/C=C/C(=O)/C=C/c3ccccn3)c(-c3cc(OC)c(OC)c(OC)c3)oc2c1
Activity (SGC-7901 [1]): 17.95%
Activity (SGC-7901 [2]): 10.44%
inhibition [3]: inactive
Activity (SGC-7901 [4]): 2.13%
Activity (SGC-7901 [5]): Dose-dependent effect
IC50 (SMMC-7721): 3.18 µM
Activity (SGC-7901 [6]): 2.84%
Activity (SGC-7901 [7]): 75.7%
Activity (SGC-7901 [8]): 51.29%
inhibition [9]: Active
Activity (SGC-7901 [10]): 20.1 - 24.9%
Activity (SGC-7901 [11]): 33.28%
inhibition [12]: Active
Activity (SGC-7901 [13]): 6.4%
Activity (SGC-7901 [14]): 24.5%
Activity (SGC-7901 [15]): 56.3%
Activity (SGC-7901 [16]): 35.37%
Activity (SGC-7901 [17]): 97.3%
IC50 (SGC-7901 [18]): 1080 nM
Activity (SGC-7901 [19]): Active
Activity (SGC-7901 [20]): 48.92%
IC50 [21]: 783 nM
inhibition [22]: Dose-dependent effect
Activity (SGC-7901 [23]): 45.78%
Activity (SGC-7901 [24]): 0.256 - 1.04%
viability at 1.2 µM (SGC-7901 [25]): 74.1%
Activity (SGC-7901 [26]): inactive
